This is an account of results in patent US12071404B2, “Aza (indole)-, benzothiophene-, and benzofuran-3-sulfonamides” (UCB Pharma GmbH, priority 2016, dated 2024).

The target of test [1] is T1, GPR17 (Homo sapiens, UniProt Q13304). Description: Calcium mobilization functional assay (GPR17 Ca2+ assay). Format: cell-based. Also on record: host or cells: Flp-In T-REx CHO. As to conditions: CHO hGPR17 cells, inhibition of 50 nM MDL29,951, Calcium 5 dye, FLIPR; read-out: Ca2+ assay pIC50 (converted). An outline of the steps: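 Flp-In T-REx CHO cells stably expressing human GPR17, doxycycline-induced (1 μg/mL, 16-20 h), loaded 60 min with Calcium 5 dye. Inhibition by varying test-compound concentrations of the 50 nM MDL29,951 agonist response was read by fluorescence over time at room temperature. pIC50 came from 4-parameter logistic fitting.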
Background: Calcium assays in cells follow changes in intracellular calcium, usually with a dye or a luminescent sensor.

In test [2] the target is T1, GPR17. The test can be described thus: cAMP accumulation functional assay (HTRF, Schild analysis). Also on record: host or cells: Flp-In T-REx CHO. It is filed as cell-based. As to conditions: CHO hGPR17 cells, Schild analysis vs MDL29,951, 5 μM forskolin, read-out: cAMP assay pA2 (converted). An outline of the steps:
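CHO Flp-In T-REx cells with doxycycline-induced human GPR17 were preincubated 30 min at room temperature in HBSS-HEPES pH 7.4 with antagonist. cAMP was then measured by HTRF after 60 min. MDL29,951 pEC50 shifts gave dose ratios, and Schild analysis gave pA2.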

T1 sequence (Q13304 whole entry): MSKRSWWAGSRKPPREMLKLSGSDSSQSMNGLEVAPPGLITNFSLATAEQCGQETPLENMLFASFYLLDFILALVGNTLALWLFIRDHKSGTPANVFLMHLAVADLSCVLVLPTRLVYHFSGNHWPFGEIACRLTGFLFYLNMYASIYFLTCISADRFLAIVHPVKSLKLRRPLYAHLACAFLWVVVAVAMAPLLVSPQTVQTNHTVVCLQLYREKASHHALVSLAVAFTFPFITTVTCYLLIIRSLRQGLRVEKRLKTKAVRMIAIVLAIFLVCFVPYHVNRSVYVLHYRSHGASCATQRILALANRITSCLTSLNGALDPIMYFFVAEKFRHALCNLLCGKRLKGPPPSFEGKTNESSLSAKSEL

Regarding `O=S(=O)(Nc1cc(F)c(OC(F)F)cc1F)c1c[nH]c2cc(Cl)ccc12` [Compound I-267, 6-chloro-N-[4-(difluoromethoxy)-2,5-difluorophenyl]-1H-indole-3-sulfonamide], the IC50 in test [1] is below 3.16 nM. The Kb in test [2] was below 3.16 nM.
For `Cc1cc(F)c(NS(=O)(=O)c2c[nH]c3nc(Cl)ccc23)cc1F` [Compound I-268, 6-chloro-N-(2,5-difluoro-4-methylphenyl)-1H-pyrrolo[2,3-b]pyridine-3-sulfonamide], in test [1], the IC50 was below 3.16 nM. Moreover, the Kb in test [2] is below 3.16 nM.
Regarding `O=S(=O)(Nc1cc(F)c(C(F)(F)F)cc1F)c1c[nH]c2cc(Cl)ccc12` [Compound I-269, 6-chloro-N-[2,5-difluoro-4-(trifluoromethyl)phenyl]-1H-indole-3-sulfonamide], in test [1], the IC50 was below 3.16 nM. Besides, the Kb in test [2] is below 3.16 nM.
Consider `Cc1cc(F)c(NS(=O)(=O)c2c[nH]c3cc(Cl)ccc23)cc1F` [Compound I-270, 6-chloro-N-(2,5-difluoro-4-methylphenyl)-1H-indole-3-sulfonamide], for which the IC50 in test [1] is below 3.16 nM. The Kb in test [2] is below 3.16 nM.
Regarding `O=S(=O)(Nc1cc(F)c(Cl)cc1F)c1c[nH]c2cc3c(cc12)OCO3` [Compound I-271, N-(4-chloro-2,5-difluorophenyl)-5H-[1,3]dioxolo[4,5-f]indole-7-sulfonamide], the IC50 in test [1] is below 3.16 nM. Moreover, the Kb in test [2] is below 3.16 nM.
`COc1ccc2c(S(=O)(=O)Nc3cc(F)c(Br)cc3F)c[nH]c2n1` [Compound I-272, N-(4-bromo-2,5-difluorophenyl)-6-methoxy-1H-pyrrolo[2,3-b]pyridine-3-sulfonamide]: the IC50 in test [1] is 3.16 to 31.6 nM. In test [2], the Kb is below 3.16 nM.
Consider `O=S(=O)(Nc1ccc(OC(F)(F)F)cc1F)c1c[nH]c2nc(Cl)ccc12` [Compound I-273, 6-chloro-N-[2-fluoro-4-(trifluoromethoxy)phenyl]-1H-pyrrolo[2,3-b]pyridine-3-sulfonamide], for which the IC50 in test [1] is 3.16 to 31.6 nM. The Kb in test [2] was 3.16 to 31.6 nM.
For the molecule `C#Cc1ccc(NS(=O)(=O)c2c[nH]c3cc(OC)ccc23)c(F)c1` [Compound I-274, N-(4-ethynyl-2-fluorophenyl)-6-methoxy-1H-indole-3-sulfonamide], the IC50 in test [1] was 3.16 to 31.6 nM. In addition, in test [2], the Kb is 3.16 to 31.6 nM.
Regarding `O=S(=O)(Nc1ccc(Br)c(Cl)n1)c1c[nH]c2cc(Cl)ccc12` [Compound I-275, N-(5-bromo-6-chloropyridin-2-yl)-6-chloro-1H-indole-3-sulfonamide], the IC50 in test [1] is 3.16 to 31.6 nM. For the same molecule, the Kb in test [2] was 3.16 to 31.6 nM.
As for `O=S(=O)(Nc1ccc(OC(F)(F)F)cc1F)c1c[nH]c2cc(Cl)ccc12` [Compound I-276, 6-chloro-N-[2-fluoro-4-(trifluoromethoxy)phenyl]-1H-indole-3-sulfonamide], in test [1], the IC50 was 3.16 to 31.6 nM. Besides, the Kb in test [2] is 3.16 to 31.6 nM.
Turning to `N#Cc1ccc2c(S(=O)(=O)Nc3cc(F)c(Cl)cc3F)c[nH]c2c1` [Compound I-277, N-(4-chloro-2,5-difluorophenyl)-6-cyano-1H-indole-3-sulfonamide], in test [1], the IC50 is 3.16 to 31.6 nM. Moreover, the Kb in test [2] was below 3.16 nM.
Consider `O=S(=O)(Nc1ccc(Cl)cc1F)c1c[nH]c2nc(Br)ccc12` [Compound I-278, 6-bromo-N-(4-chloro-2-fluorophenyl)-1H-pyrrolo[2,3-b]pyridine-3-sulfonamide], for which the IC50 in test [1] is 3.16 to 31.6 nM. Also, the Kb in test [2] is below 3.16 nM.
For the molecule `Cc1cnc(NS(=O)(=O)c2c[nH]c3cc(Cl)ccc23)c(F)c1` [Compound I-279, 6-chloro-N-(3-fluoro-5-methylpyridin-2-yl)-1H-indole-3-sulfonamide], the IC50 in test [1] is 3.16 to 31.6 nM. Also, the Kb in test [2] is 3.16 to 31.6 nM.
For the molecule `O=S(=O)(Nc1ccc(I)cn1)c1c[nH]c2cc(Cl)ccc12` [Compound I-280, 6-chloro-N-(5-iodopyridin-2-yl)-1H-indole-3-sulfonamide], the IC50 in test [1] is 3.16 to 31.6 nM. Besides, the Kb in test [2] is 3.16 to 31.6 nM.
With `COc1ccc2c(S(=O)(=O)Nc3cc(F)c(Cl)cc3F)c[nH]c2n1` [Compound I-281, N-(4-chloro-2,5-difluorophenyl)-6-methoxy-1H-pyrrolo[2,3-b]pyridine-3-sulfonamide], the IC50 in test [1] was 3.16 to 31.6 nM. In test [2], the Kb was 3.16 to 31.6 nM.
Regarding `N#Cc1ccc2c(S(=O)(=O)Nc3cc(F)c(OC(F)F)cc3F)c[nH]c2c1` [Compound I-282, 6-cyano-N-[4-(difluoromethoxy)-2,5-difluorophenyl]-1H-indole-3-sulfonamide], the IC50 in test [1] is 3.16 to 31.6 nM. Further, the Kb in test [2] was 3.16 to 31.6 nM.
Consider `C#Cc1ccc(NS(=O)(=O)c2c[nH]c3nc(OC)ccc23)c(F)c1` [Compound I-283, N-(4-ethynyl-2-fluorophenyl)-6-methoxy-1H-pyrrolo[2,3-b]pyridine-3-sulfonamide], for which the IC50 in test [1] is 3.16 to 31.6 nM. The Kb in test [2] is 3.16 to 31.6 nM.
For the molecule `O=C1OCc2cc(F)c(NS(=O)(=O)c3c[nH]c4nc(Cl)ccc34)cc21` [Compound I-284, 6-chloro-N-(6-fluoro-3-oxo-1,3-dihydro-2-benzofuran-5-yl)-1H-pyrrolo[2,3-b]pyridine-3-sulfonamide], the IC50 in test [1] was 3.16 to 31.6 nM. Also, in test [2], the Kb is above 31.6 nM.
The corresponding values for `COc1ccc2c(S(=O)(=O)Nc3cc(F)c(Br)cc3F)c[nH]c2c1` [Compound I-285, N-(4-bromo-2,5-difluorophenyl)-6-methoxy-1H-indole-3-sulfonamide] are below 3.16 nM and below 3.16 nM.
On to `COc1cc(C#N)c(F)cc1NS(=O)(=O)c1c[nH]c2cc(Cl)ccc12` [Compound I-286, 6-chloro-N-(4-cyano-5-fluoro-2-methoxyphenyl)-1H-indole-3-sulfonamide], for which the IC50 in test [1] is below 3.16 nM. Also, the Kb in test [2] is below 3.16 nM.
In the case of `COc1ccc2c(S(=O)(=O)Nc3ccc(C(F)(F)F)cc3F)c[nH]c2c1` [Compound I-287, N-(2-fluoro-4-(trifluoromethyl)phenyl)-6-methoxy-1H-indole-3-sulfonamide], the IC50 in test [1] was below 3.16 nM. Besides, the Kb in test [2] was 3.16 to 31.6 nM.
Take `COc1ccc2c(S(=O)(=O)Nc3cc(F)c(C#N)cc3OC)c[nH]c2c1` [Compound I-288, N-(4-cyano-5-fluoro-2-methoxyphenyl)-6-methoxy-1H-indole-3-sulfonamide]: the IC50 in test [1] is below 3.16 nM. Moreover, in test [2], the Kb was 3.16 to 31.6 nM.
In the case of `COc1cc(C#N)c(F)cc1NS(=O)(=O)c1c[nH]c2c1ccc1ccccc12` [Compound I-289, N-(4-cyano-5-fluoro-2-methoxyphenyl)-1H-benzo[g]indole-3-sulfonamide], the IC50 in test [1] was below 3.16 nM. Besides, the Kb in test [2] was below 3.16 nM.
Take `O=S(=O)(Nc1ncc(Cl)cc1F)c1c[nH]c2cc(Br)ccc12` [Compound I-290, 6-Bromo-N-(5-chloro-3-fluoropyridin-2-yl)-1H-indole-3-sulfonamide]: the IC50 in test [1] is below 3.16 nM. In addition, the Kb in test [2] is below 3.16 nM.
For `COc1ccc2c(S(=O)(=O)Nc3cc(F)c(C#N)cc3F)c[nH]c2c1` [Compound I-291, N-(4-cyano-2,5-difluorophenyl)-6-methoxy-1H-indole-3-sulfonamide], the IC50 in test [1] was below 3.16 nM. Moreover, in test [2], the Kb was below 3.16 nM.
As to `COc1cc(C#N)c(F)cc1NS(=O)(=O)c1c[nH]c2nc(Cl)ccc12` [Compound I-292, 6-chloro-N-(4-cyano-5-fluoro-2-methoxyphenyl)-1H-pyrrolo[2,3-b]pyridine-3-sulfonamide], in test [1], the IC50 was 3.16 to 31.6 nM. The Kb in test [2] was 3.16 to 31.6 nM.
Consider `COc1ccc2c(S(=O)(=O)Nc3ccc(Br)cc3F)c[nH]c2c1` [Compound I-293, N-(4-bromo-2-fluorophenyl)-6-methoxy-1H-indole-3-sulfonamide], for which the IC50 in test [1] is 3.16 to 31.6 nM. Besides, in test [2], the Kb is 3.16 to 31.6 nM.
Regarding `N#Cc1ccc(NS(=O)(=O)c2c[nH]c3cc(OCC(F)(F)F)ccc23)c(F)c1` [Compound I-294, N-(4-cyano-2-fluorophenyl)-6-(2,2,2-trifluoroethoxy)-1H-indole-3-sulfonamide], the IC50 in test [1] is 3.16 to 31.6 nM. The Kb in test [2] is 3.16 to 31.6 nM.
Regarding `O=S(=O)(Nc1ccc(S(F)(F)(F)(F)F)cc1F)c1c[nH]c2nc(Cl)ccc12` [Compound I-295, 6-chloro-N-[2-fluoro-4-(pentafluoro-lambda-6-sulfanyl)phenyl]-1H-pyrrolo[2,3-b]pyridine-3-sulfonamide], the IC50 in test [1] is 3.16 to 31.6 nM. Moreover, the Kb in test [2] was 3.16 to 31.6 nM.
As to `O=S(=O)(Nc1ccc(C(F)(F)F)cc1F)c1c[nH]c2nc(Cl)ccc12` [Compound I-296, 6-chloro-N-[2-fluoro-4-(trifluoromethyl)phenyl]-1H-pyrrolo[2,3-b]pyridine-3-sulfonamide], the IC50 in test [1] was 3.16 to 31.6 nM. In addition, the Kb in test [2] was 3.16 to 31.6 nM.
Turning to `O=S(=O)(Nc1ncc(C(F)(F)F)cc1F)c1c[nH]c2cc(Cl)ccc12` [Compound I-297, 6-chloro-N-[3-fluoro-5-(trifluoromethyl)pyridin-2-yl]-1H-indole-3-sulfonamide], the IC50 in test [1] is 3.16 to 31.6 nM. Also, the Kb in test [2] is below 3.16 nM.
The like results for `COc1cc(F)c(NS(=O)(=O)c2c[nH]c3cc(Cl)ccc23)cc1F` [Compound I-298, 6-chloro-N-(2,5-difluoro-4-methoxyphenyl)-1H-indole-3-sulfonamide] were, in that order, 3.16 to 31.6 nM and 3.16 to 31.6 nM.
Take `O=S(=O)(Nc1ccc(C(F)(F)F)cc1F)c1c[nH]c2cc(Cl)ccc12` [Compound I-299, 6-chloro-N-[2-fluoro-4-(trifluoromethyl)phenyl]-1H-indole-3-sulfonamide]: the IC50 in test [1] was 3.16 to 31.6 nM. The Kb in test [2] was below 3.16 nM.
